In patent US6958321B2, “Isolation, characterization, cloning and use of a mushroom lectin” (The Regents of the University of Michigan, priority 2001, dated 2005):

Key:
[1] = test system: MOA; test: Sugar ligand binding to MOA (hemagglutination inhibition, hapten inhibition of precipitation, calorimetry); parameters: species or system Marasmius oreades; conditions: binding to MOA in solution
Method: All three methods gave approximately the same results, with the calorimetric data being the most precise.
Being a blood type B agglutinin, MOA was assayed primarily against D-galactosyl-terminated sugars and oligosaccharides. […] Methyl α-galactopyranoside was similarly very poor. […] While not limited to any particular mechanism, and with the understanding that knowledge of the underlying mechanism is not required for the practice of the invention, it is believed that recognition of the L-fucosyl moiety is the reason for limited agglutination of human O erythrocytes and a weak precipitin curve with blood group H substance.

[2] = biological target: T1, Marasmius oreades lectin (MOA, cMOA) (Marasmius oreades, UniProt Q8X123); test: Isothermal titration calorimetry, MOA of Example 1 (proteolyzed, clipped form, cMOA); type: binding; conditions: for Kd / TΔS / −ΔG / −ΔH / Ka / ligand binding: isothermal titration calorimetry; for Ka, cMOA: proteolyzed (clipped) native lectin, Table 6
T1 sequence (Q8X123 1-293): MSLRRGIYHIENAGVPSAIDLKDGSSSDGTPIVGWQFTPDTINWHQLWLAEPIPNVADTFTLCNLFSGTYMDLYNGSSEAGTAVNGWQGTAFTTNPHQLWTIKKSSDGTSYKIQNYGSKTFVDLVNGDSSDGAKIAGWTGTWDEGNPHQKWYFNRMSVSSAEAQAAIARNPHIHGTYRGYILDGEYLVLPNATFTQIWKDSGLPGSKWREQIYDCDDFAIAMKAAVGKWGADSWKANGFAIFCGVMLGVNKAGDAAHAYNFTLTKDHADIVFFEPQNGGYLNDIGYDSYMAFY

[3] = test system: immobilized MOA; test: Binding to MOA-Sepharose 4B affinity column; parameters: species or system Marasmius oreades; conditions: washed with PBS, eluted with 20 mM diaminopropane
From the text: Further insight into the carbohydrate specificity of MOA was obtained by using immobilized MOA. Immobilization of MOA on a variety of supports is contemplated. In one embodiment, MOA is immobilized on a matrix that can be used in an affinity column (see below). In some embodiments, the matrix comprises Sepharose 4B beads. In some Embodiments, the MOA-conjugated Sepharose 4B beads are packed in a column for binding and affinity isolation and purification studies. Briefly, the MOA-Sepharose column is loaded with glycan, glycoconjugate or serum sample to be tested, then washed with an appropriate buffer (including but not limited to PBS). Bound components are eluted with a suitable elution buffer (including but not limited to 1,3-diaminopropane in NaCl), and the collected fractions are analyzed for the presence of protein or glycan (see Example 6 below). The fractions containing the bound components (eluted as described herein) can be pooled and concentrated.
MOA was immobilized on cyanogen bromide-activated Sepharose 4B as follows. 1.5 g of cyanogen bromide-activated Sepharose 4B was allowed to swell in 100 ml of 1 mM HCl solution for 30 min. The supernatant was removed and the swollen beads (6 ml) were filtered on a sintered funnel, washed several times with 100 ml of 1 mM HCl and finally with 20 ml of 0.1 M sodium bicarbonate buffer, pH 8.3, containing 0.5 M sodium chloride. The beads were quickly transferred to a plastic bottle containing 16.2 mg MOA in the same buffer (10 ml) containing 0.2 M lactose. The plastic bottle was shaken at room temperature for 6 hr and at 4° C. overnight. The beads were filtered on a sintered glass funnel, washed with the coupling buffer, and then shaken in 1 M ethanolamine (12 ml) at room temperature for 2.5 hr to cap all of the unreacted iminocarbonate groups. The beads were filtered, washed alternately with the coupling buffer then sodium acetate buffer (0.1 M, pH 4.0 containing 0.5 M NaCl) four times. A column (1×7 cm) packed with the beads was finally washed with PBS containing 0.04% sodium azide. The beads contained 2.3 mg MOA per ml Sepharose 4B, based on MOA remaining in solution.
In order to assess the binding of various glycans, glycoconjugates and serum samples to MOA-Sepharose, the following general procedure was used. The MOA-Sepharose column was loaded with glycan, glycoconjugate or serum sample (0.6-5 ml) and washed with PBS (15 ml). The bound components were eluted with 20 mM 1,3-diaminopropane in 0.15 M NaCl (15 ml). The fractions collected (1 ml) were neutralized with 1 M phosphoric acid (approximately 16 μl), and analyzed by either absorbance at 280 nm for protein, or by phenol-sulfuric acid assay, as described by Dubois et al. [Anal. Chem. 28: 350 (1956)] for the glycan. The column was finally washed thoroughly with PBS. The fractions containing the bound components were pooled and concentrated by Amicon ultrafiltration (Millipore Corp., Bedford, Mass.) using a membrane (YM10) of 10,000 molecular weight cut-off.

[4] = biological target: T2, recombinant MOA (rMOA) (Marasmius oreades, UniProt Q8X123); test: Isothermal titration calorimetry, recombinant MOA (rMOA); type: binding; conditions: read-out: Ka, rMOA (converted)
T2 sequence (Q8X123 1-293): T1 sequence (Q8X123 1-293)
Method: (§1) As this volume underfills the titration cell, variable volume calculations were applied, using the Bindworks software installed in the instrument. […] Finally, the trisaccharide L-Fucα1,2Ga1β1,4G1c (fucosyllactose), related to the blood group H trisaccbaride, was assayed. […] While not to be limited to any particular mechanism, it is believed that this may be the reason that MOA recognizes and agglutinates human O erythrocytes to a limited extent, and gives a weak precipitin curve with blood group H substance.
Expression and characterization of recombinant MOA: A full-length PCR product incorporating NdeI and EcoRI into its forward and reverse primers, respectively, was cloned into PCR Blunt II using topoisomerase (Invitrogen) and subsequently shuttled into an IPTG inducible pT7 expression vector (MOApT7LO). Recombinant MOA was expressed in a Nova Blue DE3 strain of E. coli. Expressing bacteria were collected by centrifugation and resuspended in a lysis buffer consisting of 50 mM NaH2PO4, 300 mM NaCl, 10 mM imidizole, 10mM 2-mercaptoethanol, 1 mM phenylmethylsulfonyl fluoride, 1% NP-40, and a protease inhibitor cocktail. The extract was twice run through a french press. The insoluble fraction was removed by centrifugation (10,000×g, 15 min).
(§2) Purification of recombinant MOA and native intact MOA-Recombinant MOA was purified from the soluble fraction by absorption on a column of melibiose-Sepharose and elution by lactose. Further purification was carried out on an affinity column of Synsorb B. Except for the diaminopropane elution, all affinity purifications were carried out in PBS, pH 7.2, containing 1.25 mM EDTA. After purification, lectin solutions were dialyzed against distilled water and lyophilized. […] Intact native MOA was prepared with a purification procedure (Example 2) that utilized a protease inhibitor cocktail (product P8215, Sigma, St. Louis, Mo.) which was added at the level of 0.1 ml/100 ml extract buffer (instead of phenylmethylsulfonyl fluoride), all buffers lacked Ca^++ and contained 1.25 mM EDTA, and the initial extraction and ammonium sulfate fractionations were carried out under an atmosphere of argon.
(§3) Binding constants of several relevant oligosaccharides to recombinant and intact native MOA were determined calorimetrically.

[5] = biological target: T3, intact native MOA (nMOA) (Marasmius oreades, UniProt Q8X123); test: Isothermal titration calorimetry, intact native MOA (nMOA); type: binding; conditions: read-out: Ka, nMOA (converted)
T3 sequence (Q8X123 1-293): T1 sequence (Q8X123 1-293)
Method: as §1, §2, §3

| Compound | ligand binding [1] | Kd [2] [µM] | TΔS [2] [kJ/mol] | −ΔG [2] [kJ/mol] | −ΔH [2] [kJ/mol] | Ka ([2]; Table 3) | other results |
| --- | --- | --- | --- | --- | --- | --- | --- |
| CO[C@H]1O[C@H](CO)[C@H](O)[C@H](O)[C@H]1O [Me-α-Gal, Methyl α-galactopyranoside] | very poor | 8130 | 12.8 | 11.8 | 24.6 | 0.123 10^3 M^−1 |  |
| OC[C@H]1O[C@@H](O[C@H]2[C@H](O)[C@@H](O)C(O)O[C@@H]2CO)[C@H](O)[C@@H](O)[C@H]1O (some centres unmarked) [Lactose] | very poor ligands | 5080 | 24.1 | 13 | 37.1 | 0.197 10^3 M^−1 | Ka [2]: 185 M⁻¹ |
| OCC1OC(OC2C(O)OC(CO)C(O)C2O)C(O)C(O)C1O (stereo not drawn) [Galβ1,2Gal, Ga1α1,2Ga1] | bound poorly or not at all | > 10000 |  |  |  | <0.1 10^3 M^−1 | ligand binding ([2]; Table 3): bound poorly or not at all |
| asialofetuin: asialofetuin, with terminal Galβ1,4GlcNAc residues |  |  |  |  |  |  | binding to MOA-Sepharose column [3]: passed through the column |
| degalactosylated bovine thyroglobulin: α-galactosidase-digested bovine thyroglobulin |  |  |  |  |  |  | binding to MOA-Sepharose column [3]: passed through the column |
| CC(=O)N[C@H]1C(O)O[C@H](CO)[C@@H](O[C@@H]2O[C@H](CO)[C@H](O)[C@H](O)[C@H]2O)[C@@H]1O (some centres unmarked) [LacNAc, N-acetyllactosamine] | very poor ligands | 3450 | 45.6 | 13.9 | 59.5 | 0.290 10^3 M^−1 | Kd [4]: 1490 µM; Kd [5]: 2630 µM; Ka, cMOA [2]: 0.29 10^3 M^−1 |
| OC[C@H]1O[C@H](OCC2O[C@@H](O)[C@H](O)[C@@H](O)[C@@H]2O)[C@H](O)[C@@H](O)[C@H]1O (stereo partly drawn) [melibiose, Ga1α1,6G1c] | very poor ligands |  |  |  |  |  |  |
| OC[C@H]1O[C@@H](OC[C@H]2OC(O)[C@H](O)[C@@H](O)[C@H]2O)[C@H](O)[C@@H](O)[C@H]1O (some centres unmarked) [Galβ1,6Gal] |  |  | 11.9 | 13.7 | 25.6 |  |  |
| CC1OC(OC2C(OC3C(CO)OC(O)C(O)C3O)OC(CO)C(O)C2O)C(O)C(O)C1O [2′ Fucosyllactose, L-Fucα1,2Ga1β1,4G1c] | low but measurable binding | 1830 | 26.8 | 15.5 | 42.3 | .548 10^3 M^−1 | Ka [2]: 548 M⁻¹ |
| C[C@@H]1O[C@@H](O[C@H]2C(O)O[C@H](CO)[C@H](O)[C@@H]2O[C@H]2O[C@H](CO)[C@H](O)[C@H](O)[C@H]2O)[C@@H](O)[C@H](O)[C@@H]1O (some centres unmarked) [B trisaccharide, Galα1,3[Fucα1,2]Gal] |  | 36 | 61.1 | 25.1 | 86.2 | 27.8 10^3 M^−1 | Kd [4]: 21.7 µM; enhancement of affinity to MOA relative to Galα1,3Gal ([2]; addition of an L-fucosyl group): 4 fold; Ka [2]: 36000 M⁻¹; Ka, cMOA [2]: 27.8 10^3 M^−1 |
| CC(=O)N[C@H]1C(O)O[C@H](CO)[C@@H](O[C@@H]2O[C@H](CO)[C@H](O)[C@H](O[C@H]3O[C@H](CO)[C@H](O)[C@H](O)[C@H]3O)[C@H]2O)[C@@H]1O (some centres unmarked) [Linear B2 trisacc., Galα1,3Galβ1,4GlcNAc] |  | 103 | 63.6 | 22.6 | 86.2 | 9.753 10^3 M^−1 | Kd [4]: 33 µM; Kd [5]: 25.4 µM; increase of binding relative to Galα1,3Gal ([2]; addition of a GlcNAc group to the reducing end): approximately 50%; Ka [2]: 9700 M⁻¹; Ka, cMOA [2]: 9.75 10^3 M^−1 |
| CO[C@@H]1O[C@H](CO)[C@@H](O)[C@H](O[C@@H]2O[C@H](CO)[C@H](O)[C@H](O)[C@H]2O)[C@H]1NC(C)=O [LactoNbioseβMe] |  | 4670 | 14.6 | 13.2 | 27.8 | 0.214 10^3 M^−1 |  |
| OCC1OC(OC2C(CO)OC(O)C(O)C2O)C(O)C(O)C1O (stereo not drawn) [Galβ1,4Gal, G1α1,4Ga1] | bound poorly or not at all | > 10000 |  |  |  | <0.1 10^3 M^−1 | ligand binding ([2]; Table 3): bound poorly or not at all |
| OC[C@H]1O[C@H](O[C@H]2[C@@H](O)[C@@H](CO)O[C@@H](O[C@H]3[C@H](O)[C@@H](O)C(O)O[C@@H]3CO)[C@@H]2O)[C@H](O)[C@@H](O)[C@H]1O (some centres unmarked) [Galα1,3Galβ1,4Glc] |  |  |  |  |  |  | Kd [4]: 75.8 µM; Kd [5]: 59.9 µM |
| Ga1α1,6Ga1 | bound poorly or not at all |  |  |  |  |  | ligand binding ([2]; Table 3): bound poorly or not at all |
